{"source": "ChEMBL document CHEMBL5344425", "about": "“Discovery of 5-(Pyrimidin-2-ylamino)-1H-indole-2-carboxamide Derivatives as Nur77 Modulators with Selective and Potent Activity Against Triple-Negative Breast Cancer” (J Med Chem, 2023)", "key": {"T47D": {"test_system": "T47D", "assay": "Antiproliferative activity against human T47D cells assessed as inhibition of cell growth measured after 24 hrs by MTT assay", "assay_type": "functional, cell-based"}, "[1]": {"assay": "Selectivity index, ratio of IC50 for cytotoxicity against human MCF-10A cells to IC50 for antiproliferative activity against human MDA-MB-231 cells", "assay_type": "toxicity, cell-based", "conditions": "MCF-10A cells versus MDA-MB-231 cells, read-out: Ratio IC50"}, "MCF7": {"test_system": "MCF7", "assay": "Antiproliferative activity against human MCF7 cells assessed as inhibition of cell growth measured after 24 hrs by MTT assay", "assay_type": "functional, cell-based", "conditions": "MCF7, 24 h"}, "HepG2": {"test_system": "HepG2", "assay": "Antiproliferative activity against human HepG2 cells assessed as inhibition of cell growth measured after 24 hrs by MTT assay", "assay_type": "functional, cell-based", "conditions": "HepG2, 24 h"}, "HeLa [2]": {"test_system": "HeLa", "assay": "Antiproliferative activity against human HeLa cells assessed as inhibition of cell growth measured after 24 hrs by MTT assay", "assay_type": "functional, cell-based"}, "HeLa [3]": {"test_system": "HeLa", "assay": "Antiproliferative activity against human HeLa cells transfected with Nur77 siRNA assessed as inhibition of cell growth measured after 24 hrs by MTT assay", "assay_type": "functional, cell-based"}, "[4]": {"biological_target": "T1, Peroxisome proliferator-activated receptor gamma (Homo sapiens) (UniProt P37231)", "T1 sequence (whole entry)": "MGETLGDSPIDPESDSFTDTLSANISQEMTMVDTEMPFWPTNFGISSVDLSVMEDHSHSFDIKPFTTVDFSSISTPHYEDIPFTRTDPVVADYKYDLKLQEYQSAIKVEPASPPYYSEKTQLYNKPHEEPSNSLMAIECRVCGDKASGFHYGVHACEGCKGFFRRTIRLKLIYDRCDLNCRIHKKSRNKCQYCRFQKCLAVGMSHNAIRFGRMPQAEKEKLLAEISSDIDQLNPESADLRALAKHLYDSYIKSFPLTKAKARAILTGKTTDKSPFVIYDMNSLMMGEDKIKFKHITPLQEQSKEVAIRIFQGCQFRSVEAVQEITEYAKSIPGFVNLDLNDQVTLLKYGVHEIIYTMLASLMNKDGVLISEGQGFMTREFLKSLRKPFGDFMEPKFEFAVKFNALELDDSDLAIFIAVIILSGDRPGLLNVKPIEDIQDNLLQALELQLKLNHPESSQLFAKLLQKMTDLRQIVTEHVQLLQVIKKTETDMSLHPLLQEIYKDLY", "assay": "Antagonist activity at PPARgamma ligand binding domain (unknown origin) transfected in HEK293T cells cotransfected with pG5-Luc assessed as inhibition of receptor transcriptional activity at 2 uM measured after 12 hrs by luciferase reporter gene assay", "assay_type": "cell-based"}, "MDA-MB-231 [5]": {"test_system": "MDA-MB-231", "assay": "Induction of apoptosis in human MDA-MB-231 cells transfected with Myc-cmv assessed as PARP cleavage at 2 to 5 uM measured after 6 hrs by western blot analysis", "assay_type": "functional, cell-based", "conditions": "dose 2-5 µM"}, "MDA-MB-231 [6]": {"test_system": "MDA-MB-231", "assay": "Induction of apoptosis in human MDA-MB-231 cells assessed as PARP cleavage at 2 uM by western blot analysis", "assay_type": "functional, cell-based", "conditions": "time 1-5 hrs, TDE = time-dependent effect"}, "MDA-MB-231 [7]": {"test_system": "MDA-MB-231", "assay": "Induction of apoptosis in human MDA-MB-231 cells assessed as proportion of early apoptotic cells at 0.63 uM measured after 5 hrs by AnnexinV-FITC/PI staining based flow cytometry (reference value: 3.35%)", "assay_type": "functional"}, "MDA-MB-231 [8]": {"test_system": "MDA-MB-231", "assay": "Induction of apoptosis in human MDA-MB-231 cells assessed as proportion of early apoptotic cells at 1.25 uM measured after 5 hrs by AnnexinV-FITC/PI staining based flow cytometry (reference value: 3.35%)", "assay_type": "functional"}, "MDA-MB-231 [9]": {"test_system": "MDA-MB-231", "assay": "Induction of apoptosis in human MDA-MB-231 cells assessed as proportion of late apoptotic cells at 1.25 uM measured after 5 hrs by AnnexinV-FITC/PI staining based flow cytometry (reference value: 2.55%)", "assay_type": "functional"}, "MDA-MB-231 [10]": {"test_system": "MDA-MB-231", "assay": "Induction of apoptosis in human MDA-MB-231 cells assessed as proportion of early apoptotic cells at 2.5 uM measured after 5 hrs by AnnexinV-FITC/PI staining based flow cytometry (reference value: 3.35%)", "assay_type": "functional"}, "MDA-MB-231 [11]": {"test_system": "MDA-MB-231", "assay": "Induction of apoptosis in human MDA-MB-231 cells assessed as proportion of early apoptotic cells at 5 uM measured after 5 hrs by AnnexinV-FITC/PI staining based flow cytometry (reference value: 3.35%)", "assay_type": "functional"}, "MDA-MB-231 [12]": {"test_system": "MDA-MB-231", "assay": "Induction of apoptosis in human MDA-MB-231 cells transfected with Myc-Nur77 assessed as PARP cleavage at 1 to 2 uM measured after 6 hrs by western blot analysis", "assay_type": "functional, cell-based", "conditions": "dose 1-2 µM"}, "MDA-MB-231 [13]": {"test_system": "MDA-MB-231", "assay": "Induction of apoptosis in human MDA-MB-231 cells transfected with ctr siRNA assessed as late apoptotic cells at 2 uM measured after 6 hrs by AnnexinV-FITC/PI staining based flow cytometry (reference value: 3.97%)", "assay_type": "functional"}, "MDA-MB-231 [14]": {"test_system": "MDA-MB-231", "assay": "Induction of apoptosis in human MDA-MB-231 cells transfected with Nur77 siRNA assessed as early apoptotic cells at 1 uM measured after 6 hrs by AnnexinV-FITC/PI staining based flow cytometry (reference value: 1.88%)", "assay_type": "functional"}, "MDA-MB-231 [15]": {"test_system": "MDA-MB-231", "assay": "Induction of apoptosis in human MDA-MB-231 cells transfected with Nur77 siRNA assessed as late apoptotic cells at 2 uM measured after 6 hrs by AnnexinV-FITC/PI staining based flow cytometry (reference value: 3.97%)", "assay_type": "functional"}, "MDA-MB-231 [16]": {"test_system": "MDA-MB-231", "assay": "Induction of apoptosis in human MDA-MB-231 cells transfected with ctr siRNA assessed as loss of mitochondrial membrane potential at 1 uM measured after 6 hrs by JC-1 staining based flow cytometry (reference value: 13.93%)", "assay_type": "functional"}, "MDA-MB-231 [17]": {"test_system": "MDA-MB-231", "assay": "Induction of apoptosis in human MDA-MB-231 cells transfected with Nur77 siRNA assessed as loss of mitochondrial membrane potential at 1 uM measured after 6 hrs by JC-1 staining based flow cytometry (reference value: 6.1%)", "assay_type": "functional"}, "MDA-MB-231 [18]": {"test_system": "MDA-MB-231", "assay": "Induction of apoptosis in human MDA-MB-231 cells assessed as increase in cleaved caspase-3 expression at 1 uM measured after 6 hrs by confocal microscopy", "assay_type": "functional, cell-based"}, "MDA-MB-231 [19]": {"test_system": "MDA-MB-231", "assay": "Antitumor activity against human MDA-MB-231 cells xenografted in BALB/c mouse assessed as inhibition of tumor growth at 10 mg/kg, ip qd for 16 days", "assay_type": "functional", "conditions": "MDA-MB-231, 384 h, time 16 day, read-out: TGI"}, "[20]": {"assay": "Toxicity in BALB/c mouse xenografted with human MDA-MB-231 cells assessed as body weight loss at 10 mg/kg, ip qd for 16 days", "assay_type": "organism-based", "conditions": "in vivo, 384 h, time 16 day"}, "MDA-MB-231 [21]": {"test_system": "MDA-MB-231", "assay": "Antitumor activity against human MDA-MB-231 cells xenografted in BALB/c mouse assessed as decrease in Ki67 expression in tumor at 10 mg/kg, ip qd for 16 days by immunohistochemical staining based analysis", "assay_type": "functional, organism-based", "conditions": "time 16.0 day"}, "[22]": {"assay": "Toxicity in BALB/c mouse xenografted with human MDA-MB-231 cells assessed as morphological changes in lung at 10 mg/kg, ip qd for 16 days by Hematoxylin-Eosin staining based analysis", "assay_type": "organism-based", "conditions": "in vivo, 384 h, time 16 day"}, "[23]": {"assay": "Toxicity in BALB/c mouse xenografted with human MDA-MB-231 cells assessed as morphological changes in kidney at 10 mg/kg, ip qd for 16 days by Hematoxylin-Eosin staining based analysis", "assay_type": "organism-based", "conditions": "in vivo, 384 h, time 16 day"}, "[24]": {"biological_target": "Nuclear receptor subfamily 4immunitygroup A member 1 (Homo sapiens, UniProt P22736)", "sequence (P22736 whole entry, the tested form may be a part)": "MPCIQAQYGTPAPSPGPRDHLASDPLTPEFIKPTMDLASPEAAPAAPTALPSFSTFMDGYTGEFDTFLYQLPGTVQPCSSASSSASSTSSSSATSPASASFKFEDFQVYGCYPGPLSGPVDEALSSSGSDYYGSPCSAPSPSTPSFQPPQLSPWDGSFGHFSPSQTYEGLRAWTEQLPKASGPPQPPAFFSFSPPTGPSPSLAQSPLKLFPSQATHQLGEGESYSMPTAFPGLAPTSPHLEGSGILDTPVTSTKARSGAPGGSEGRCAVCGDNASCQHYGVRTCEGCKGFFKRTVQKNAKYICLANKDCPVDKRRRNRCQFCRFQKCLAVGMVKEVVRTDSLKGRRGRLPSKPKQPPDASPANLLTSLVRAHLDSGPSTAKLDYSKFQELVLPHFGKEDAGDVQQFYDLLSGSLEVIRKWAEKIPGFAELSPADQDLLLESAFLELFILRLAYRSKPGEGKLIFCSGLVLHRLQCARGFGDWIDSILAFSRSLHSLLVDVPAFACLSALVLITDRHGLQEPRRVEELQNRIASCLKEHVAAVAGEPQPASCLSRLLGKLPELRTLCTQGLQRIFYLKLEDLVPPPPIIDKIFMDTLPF", "assay": "Binding affinity to His-tagged Nur77 ligand binding domain (unknown origin) by surface plasmon resonance assay"}}, "note": "Calls of active or inactive are those of the source. No cut-off for these calls is given here.", "data": [{"molecule": "CCN(CC)CCCNC(=O)c1cc2cc(Nc3nccc(-c4sc(NC)nc4C)n3)ccc2[nH]1", "values": [{"measurement": "IC50", "setting": "T47D", "result": 1050, "unit": "nM"}, {"measurement": "selectivity ratio", "setting": "[1]", "result": 120}, {"measurement": "IC50", "setting": "MCF7", "result": 720, "unit": "nM"}, {"measurement": "IC50", "setting": "HepG2", "result": 53700, "unit": "nM"}, {"measurement": "IC50", "setting": "HeLa [2]", "result": 1990, "unit": "nM"}, {"measurement": "IC50", "setting": "HeLa [3]", "result": 9150, "unit": "nM"}, {"measurement": "inhibition", "setting": "[4]", "result": "inactive"}, {"measurement": "Activity", "setting": "MDA-MB-231 [5]", "result": "Active"}, {"measurement": "Activity", "setting": "MDA-MB-231 [6]", "result": "Tde"}, {"measurement": "Activity", "setting": "MDA-MB-231 [7]", "result": 20.22, "unit": "%"}, {"measurement": "Activity", "setting": "MDA-MB-231 [8]", "result": 35.95, "unit": "%"}, {"measurement": "Activity", "setting": "MDA-MB-231 [9]", "result": 4.06, "unit": "%"}, {"measurement": "Activity", "setting": "MDA-MB-231 [10]", "result": 38.14, "unit": "%"}, {"measurement": "Activity", "setting": "MDA-MB-231 [11]", "result": 52.78, "unit": "%"}, {"measurement": "Activity", "setting": "MDA-MB-231 [12]", "result": "Active"}, {"measurement": "Activity", "setting": "MDA-MB-231 [13]", "result": 13.04, "unit": "%"}, {"measurement": "Activity", "setting": "MDA-MB-231 [14]", "result": 2.25, "unit": "%"}, {"measurement": "Activity", "setting": "MDA-MB-231 [15]", "result": 2.36, "unit": "%"}, {"measurement": "Activity", "setting": "MDA-MB-231 [16]", "result": 35.26, "unit": "%"}, {"measurement": "Activity", "setting": "MDA-MB-231 [17]", "result": 8.57, "unit": "%"}, {"measurement": "Activity", "setting": "MDA-MB-231 [18]", "result": "Active"}, {"measurement": "inhibition in vivo at 10 mg/kg", "setting": "MDA-MB-231 [19]", "result": 100, "unit": "%"}, {"measurement": "Activity", "setting": "[20]", "result": "Non-Toxic"}, {"measurement": "Activity", "setting": "MDA-MB-231 [21]", "result": "Active"}, {"measurement": "Activity", "setting": "[22]", "result": "Non-Toxic"}, {"measurement": "Activity", "setting": "[23]", "result": "Non-Toxic"}, {"measurement": "Kd", "setting": "[24]", "result": 91, "unit": "nM"}]}]}
